Source: patent publication US20220289708A1, “SUBSTITUTED N-PHENYL URACILS, SALTS THEREOF AND THEIR USE AS HERBICIDAL AGENTS” (Bayer Aktiengesellschaft, priority 2019, published 2022)

Assays:
Format in all cases: in vivo
Oryza sativa = test: Post-emergence crop plant compatibility; conditions: application rate 5 g/ha
How it was run: (§1)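 Greenhouse crop plants in sandy loam sprayed at one-leaf stage (2-3 weeks after sowing) with WP or EC formulations plus 0.5% additive, 600 l/ha water, at 5 g/ha or 20 g/ha. Damage scored visually after about 3 weeks as % versus untreated controls (100% = plants dead).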

Triticum aestivum = test: Post-emergence crop plant compatibility
How it was run: as §1

Polygonum convolvulus [1] = test: Post-emergence herbicidal action; conditions: application rate 5 g/ha
How it was run: (§2)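 Percent activity, judged by eye about 3 weeks after treatment relative to untreated plants, ranges from 0% (as control) to 100% (plants dead). Foliar application at 20 g/ha and less was made at the one-leaf stage using a 600 l/ha aqueous spray containing 0.5% additive.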

Echinochloa crus-galli [2] = test: Post-emergence herbicidal action; conditions: rated visually after about 3 weeks vs untreated controls
How it was run: as §2

Abutilon theophrasti [3] = test: Post-emergence herbicidal action; conditions: application rate 5 g/ha, rated visually after about 3 weeks vs untreated controls
How it was run: as §2

Matricaria inodora [4] = test: Post-emergence herbicidal action; conditions: rated visually after about 3 weeks vs untreated controls
How it was run: as §2

Setaria viridis [5] = test: Post-emergence herbicidal action; conditions: rated visually after about 3 weeks vs untreated controls
How it was run: as §2

Digitaria sanguinalis [6] = test: Post-emergence herbicidal action; conditions: rated visually after about 3 weeks vs untreated controls
How it was run: as §2

Viola tricolor [7] = test: Post-emergence herbicidal action; conditions: application rate 5 g/ha
How it was run: as §2

Lolium rigidum [8] = test: Post-emergence herbicidal action; conditions: application rate 20 g/ha, rated visually after about 3 weeks vs untreated controls
How it was run: as §2

Alopecurus myosuroides [9] = test: Post-emergence herbicidal action; conditions: rated visually after about 3 weeks vs untreated controls
How it was run: as §2

Veronica persica [10] = test: Post-emergence herbicidal action
How it was run: as §2

Stellaria media = test: Post-emergence herbicidal action; conditions: application rate 5 g/ha, rated visually after about 3 weeks vs untreated controls
How it was run: as §2

Hordeum murinum = test: Post-emergence herbicidal action; conditions: application rate 20 g/ha
How it was run: as §2

Pharbitis purpurea [11] = test: Post-emergence herbicidal action; conditions: application rate 5 g/ha, rated visually after about 3 weeks vs untreated controls
How it was run: as §2

Amaranthus retroflexus [12] = test: Post-emergence herbicidal action; conditions: application rate 5 g/ha, rated visually after about 3 weeks vs untreated controls
How it was run: as §2

Polygonum convolvulus [13] = test: Pre-emergence herbicidal action; conditions: application rate 20 g/ha
Description: (§3) B. Pre-Emergence Herbicidal Action and Crop Plant Compatibility Seeds of monocotyledonous and dicotyledonous weed plants and crop plants were placed in plastic or organic planting pots and covered with soil. The compounds of the invention, formulated in the form of wettable powders (WP) or as emulsion concentrates (EC), were then applied to the surface of the covering soil as aqueous suspension or emulsion with addition of 0.5% additive at a water application rate equivalent to 600 l/ha (converted). After the treatment, the pots were placed in a greenhouse and kept under good growth conditions for the test plants. After about 3 weeks, the effect of the preparations was scored visually in comparison with untreated controls as percentages. For example, 100% activity=the plants have died, 0% activity=like control plants. Tables B1 to B13 below show the effects of selected compounds of the general formula (I) according to Tables I.1 to I.36 on various harmful plants and at an application rate corresponding to 80 g/ha or less, which were obtained by the experimental procedure mentioned above.

Echinochloa crus-galli [14] = test: Pre-emergence herbicidal action; conditions: application rate 20 g/ha
Description: as §3

Abutilon theophrasti [15] = test: Pre-emergence herbicidal action; conditions: application rate 20 g/ha
Description: as §3

Matricaria inodora [16] = test: Pre-emergence herbicidal action; conditions: application rate 20 g/ha
Description: as §3

Setaria viridis [17] = test: Pre-emergence herbicidal action; conditions: application rate 20 g/ha
Description: as §3

Digitaria sanguinalis [18] = test: Pre-emergence herbicidal action; conditions: application rate 20 g/ha
Description: as §3

Viola tricolor [19] = test: Pre-emergence herbicidal action; conditions: application rate 20 g/ha
Description: as §3

Lolium rigidum [20] = test: Pre-emergence herbicidal action; conditions: application rate 80 g/ha
Description: as §3

Alopecurus myosuroides [21] = test: Pre-emergence herbicidal action; conditions: application rate 80 g/ha
Description: as §3

Veronica persica [22] = test: Pre-emergence herbicidal action; conditions: application rate 20 g/ha
Description: as §3

Pharbitis purpurea [23] = test: Pre-emergence herbicidal action; conditions: application rate 20 g/ha
Description: as §3

Avena fatua [24] = test: Pre-emergence herbicidal action; conditions: application rate 80 g/ha
Description: as §3

Amaranthus retroflexus [25] = test: Pre-emergence herbicidal action; conditions: application rate 20 g/ha
Description: as §3

Avena fatua [26] = test: Post-emergence herbicidal action; conditions: application rate 20 g/ha, rated visually after about 3 weeks vs untreated controls
How it was run: as §2

Zea mays = test: Pre-emergence crop plant compatibility; conditions: application rate 20 g/ha
Description: B. Pre-Emergence Herbicidal Action and Crop Plant Compatibility
as §3, with “Seeds” for “B. Pre-Emergence Herbicidal Action and Crop Plant Compatibility Seeds”, “plants.” for “plants. Tables B1 to B13 below show the effects of selected compounds of the general formula (I) according to Tables I.1 to I.36 on various harmful plants and at an application rate corresponding to 80 g/ha or less, which were obtained by the experimental procedure mentioned above.”
Tables B14 to B16 below show the crop plant compatibilities of selected compounds of the general formula (I) according to Tables I.1 to I.36 at an application rate corresponding to 20 g/ha, which were obtained in experiments according to the experimental procedure mentioned above. Here, the observed effects on selected crop plants are stated in comparison to the untreated controls (values in %).

| SMILES | Oryza sativa (efficacy in %) (Oryza sativa) | Echinochloa crus-galli (efficacy in %) (Echinochloa crus-galli [2]; application rate 5 g/ha) | Abutilon theophrasti (efficacy in %) (Abutilon theophrasti [3]) | Pharbitis purpurea (efficacy in %) (Pharbitis purpurea [11]) | Amaranthus retroflexus (efficacy in %) (Amaranthus retroflexus [12]) | Polygonum convolvulus (efficacy in %) (Polygonum convolvulus [13]) | Echinochloa crus-galli (efficacy in %) (Echinochloa crus-galli [14]) | Abutilon theophrasti (efficacy in %) (Abutilon theophrasti [15]) | Matricaria inodora (efficacy in %) (Matricaria inodora [16]) | Setaria viridis (efficacy in %) (Setaria viridis [17]) | Digitaria sanguinalis (efficacy in %) (Digitaria sanguinalis [18]) | Viola tricolor (efficacy in %) (Viola tricolor [19]) | Lolium rigidum (efficacy in %) (Lolium rigidum [20]) | Alopecurus myosuroides (efficacy in %) (Alopecurus myosuroides [21]) | Veronica persica (efficacy in %) (Veronica persica [22]) | Pharbitis purpurea (efficacy in %) (Pharbitis purpurea [23]) | Avena fatua (efficacy in %) (Avena fatua [24]) | Amaranthus retroflexus (efficacy in %) (Amaranthus retroflexus [25]) | Matricaria inodora (efficacy in %) (Matricaria inodora [4]; application rate 5 g/ha) | Veronica persica (efficacy in %) (Veronica persica [10]; application rate 5 g/ha) | also measured |
| --- | --- | --- | --- | --- | --- | --- | --- | --- | --- | --- | --- | --- | --- | --- | --- | --- | --- | --- | --- | --- | --- |
| Cn1c(C(F)(F)F)cc(=O)n(-c2cc(Sc3cccnc3SCC(=O)OCC3CCOC3)c(Cl)cc2F)c1=O (stereo not drawn) [I.10-72] | 20% | 100% | 100% | 100% | 100% | – | – | – | – | – | – | – | – | – | – | – | – | – | – | – | Triticum aestivum (efficacy in %) (Triticum aestivum; application rate 20 g/ha): 20%; Polygonum convolvulus (efficacy in %) (Polygonum convolvulus [1]): 100%; Matricaria inodora (efficacy in %) (Matricaria inodora [4]; application rate 20 g/ha): 100%; Setaria viridis (efficacy in %) (Setaria viridis [5]; application rate 5 g/ha): 90%; Digitaria sanguinalis (efficacy in %) (Digitaria sanguinalis [6]; application rate 5 g/ha): 80%; Viola tricolor (efficacy in %) (Viola tricolor [7]): 100%; Lolium rigidum (efficacy in %) (Lolium rigidum [8]): 80%; Alopecurus myosuroides (efficacy in %) (Alopecurus myosuroides [9]; application rate 20 g/ha): 80%; Veronica persica (efficacy in %) (Veronica persica [10]; application rate 20 g/ha): 80%; Stellaria media (efficacy in %) (Stellaria media): 90%; Hordeum murinum (efficacy in %) (Hordeum murinum): 80% |
| CSCCOC(=O)COc1ncccc1Oc1cc(-n2c(=O)cc(C(F)(F)F)n(C)c2=O)c(F)cc1Cl [I.15-31] | 20% | – | 100% | 100% | 100% | 100% | 100% | 100% | 100% | 100% | 100% | 100% | 100% | 100% | 100% | 100% | 100% | 100% | 100% | 100% | Digitaria sanguinalis (efficacy in %) (Digitaria sanguinalis [6]; application rate 5 g/ha): 100% |
| Cn1c(C(F)(F)F)cc(=O)n(-c2cc(Oc3cccnc3OCC(=O)OC3COC3)c(Cl)cc2F)c1=O [I.15-115] | – | – | 100% | 100% | 100% | – | – | – | – | – | – | – | – | – | – | – | – | – | 100% | 100% | Triticum aestivum (efficacy in %) (Triticum aestivum; application rate 5 g/ha): 20%; Polygonum convolvulus (efficacy in %) (Polygonum convolvulus [1]): 100%; Echinochloa crus-galli (efficacy in %) (Echinochloa crus-galli [2]; application rate 20 g/ha): 100%; Setaria viridis (efficacy in %) (Setaria viridis [5]; application rate 20 g/ha): 100%; Digitaria sanguinalis (efficacy in %) (Digitaria sanguinalis [6]; application rate 20 g/ha): 100%; Viola tricolor (efficacy in %) (Viola tricolor [7]): 100%; Lolium rigidum (efficacy in %) (Lolium rigidum [8]): 90%; Alopecurus myosuroides (efficacy in %) (Alopecurus myosuroides [9]; application rate 5 g/ha): 80%; Stellaria media (efficacy in %) (Stellaria media): 100%; Hordeum murinum (efficacy in %) (Hordeum murinum): 100%; Avena fatua (efficacy in %) (Avena fatua [26]): 90% |
| Cn1c(C(F)(F)F)cc(=O)n(-c2cc(Oc3cccnc3OCC(=O)OCc3ccccn3)c(Cl)cc2F)c1=O [I.15-286] | 20% | 100% | 100% | 100% | 100% | 100% | 80% | 100% | 100% | 100% | 100% | 100% | 100% | 100% | 100% | 100% | 100% | 100% | 90% | 100% | Zea mays (efficacy in %) (Zea mays): 20%; Digitaria sanguinalis (efficacy in %) (Digitaria sanguinalis [6]; application rate 5 g/ha): 100% |
| Cn1c(C(F)(F)F)cc(=O)n(-c2cc(Oc3cccnc3OCC(=O)OCc3ccncc3)c(Cl)cc2F)c1=O [I.15-288] | 0% | 100% | 100% | 100% | 100% | 100% | 80% | 100% | 100% | 100% | 100% | 100% | 100% | 100% | 100% | 100% | 100% | 100% | 90% | 100% | – |
| Cn1c(C(F)(F)F)cc(=O)n(-c2cc(Oc3cccnc3OCC(=O)OCc3cccnn3)c(Cl)cc2F)c1=O [I.15-301] | 20% | 100% | 100% | 100% | 100% | 100% | 80% | 100% | 100% | 100% | 100% | 100% | 100% | 100% | 80% | 100% | 100% | 100% | – | 100% | Zea mays (efficacy in %) (Zea mays): 0% |
